# pEC50: −log10 of the molar value.
# Legend:
# human recombinant PKM2 = target: T1, human recombinant PKM2 (Homo sapiens, UniProt P14618); assay: Pyruvate kinase activity enzyme assay, recombinant enzyme (LDH-coupled, NADH depletion at 340 nm); format: biochemical; conditions: normalized to DMSO-treated PKM2 activity; for pEC50: recombinant PKM2 20 nM; for Emax / Max Activation: recombinant PKM2; for Emax: read-out: Max Activation
# T1 construct: purchased Sigma SAE0021
# Experimental: Pyruvate Kinase Activity Enzyme Assay. Recombinant Enzyme. A continuous, enzyme-coupled assay, which uses lactate dehydrogenase (LDH) and measures the depletion of NADH via absorbance at 340 nm was utilized to determine the pyruvate kinase activity. For AC50 measurements (concentration of activator necessary to achieve half-maximal activation) with ML-265, assays were performed in 96-well format using 200 μL/well assay volume with final concentrations of 20 nM human recombinant PKM2 (Sigma, SAE0021), differing concentrations of ML-265, 0.5 mM PEP, 1 mM ADP, 0.2 mM NADH, and 8 U of lactate dehydrogenase (LDH) in an assay buffer of 50 mM Tris-HCl (pH 7.4), 100 mM KCl, and 5 mM MgCl2. The decrease in absorbance at 340 nm was monitored using a SPECTROstar Omega plate reader (BMG LABTECH Inc., Cary, NC, USA). Initial velocities were calculated with the MARS software. Data were normalized to DMSO (dimethyl sulfoxide)-treated PKM2 activity.
# [1] = target: T2, pyruvate kinase activity, 661W cell line (Mus musculus, UniProt P52480); assay: Pyruvate kinase activity in 661W cell lysates after 2 hours treatment; format: cell-based; conditions: 661W cells, 2 hours incubation, activity normalized to total protein; for Emax: read-out: Max Activation (cell)
# T2 construct: endogenous in cells; host or cells: 661W cell line
# Experimental: Cell culture. For 661W cell line experiments, media was replaced prior to the start of treatment with DMSO or ML-265. Cells were incubated with DMSO or different concentrations of ML-265 for 2 hours. Cells were lysed and homogenized in RIPA Lysis and Extraction Buffer (Catalog number: 89900, Life Technologies Corporation, Grand Island, NY) with protease inhibitors (Complete-Mini, Roche Diagnostics, Indianapolis, IN) and cellular debris was removed by centrifugation at 10,000 rpm for 10 minutes. Ten microliters of the supernatant was used to assess pyruvate kinase activity, and the activity was normalized to total protein content as previously described.
# T1 sequence (P14618 whole entry): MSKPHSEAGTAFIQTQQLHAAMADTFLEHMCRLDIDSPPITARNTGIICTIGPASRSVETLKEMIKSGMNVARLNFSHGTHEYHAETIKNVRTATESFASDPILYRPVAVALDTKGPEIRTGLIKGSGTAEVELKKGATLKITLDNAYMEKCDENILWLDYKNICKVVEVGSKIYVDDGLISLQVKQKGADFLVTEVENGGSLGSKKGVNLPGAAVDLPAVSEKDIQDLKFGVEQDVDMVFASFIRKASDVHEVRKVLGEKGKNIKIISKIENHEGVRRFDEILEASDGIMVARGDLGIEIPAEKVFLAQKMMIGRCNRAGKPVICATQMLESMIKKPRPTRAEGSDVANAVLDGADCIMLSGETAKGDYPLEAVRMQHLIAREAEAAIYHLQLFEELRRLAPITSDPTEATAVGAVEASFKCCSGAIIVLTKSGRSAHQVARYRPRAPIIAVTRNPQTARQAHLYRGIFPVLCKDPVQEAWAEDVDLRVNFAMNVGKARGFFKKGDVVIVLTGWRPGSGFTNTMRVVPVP
# T2 sequence (P52480 whole entry): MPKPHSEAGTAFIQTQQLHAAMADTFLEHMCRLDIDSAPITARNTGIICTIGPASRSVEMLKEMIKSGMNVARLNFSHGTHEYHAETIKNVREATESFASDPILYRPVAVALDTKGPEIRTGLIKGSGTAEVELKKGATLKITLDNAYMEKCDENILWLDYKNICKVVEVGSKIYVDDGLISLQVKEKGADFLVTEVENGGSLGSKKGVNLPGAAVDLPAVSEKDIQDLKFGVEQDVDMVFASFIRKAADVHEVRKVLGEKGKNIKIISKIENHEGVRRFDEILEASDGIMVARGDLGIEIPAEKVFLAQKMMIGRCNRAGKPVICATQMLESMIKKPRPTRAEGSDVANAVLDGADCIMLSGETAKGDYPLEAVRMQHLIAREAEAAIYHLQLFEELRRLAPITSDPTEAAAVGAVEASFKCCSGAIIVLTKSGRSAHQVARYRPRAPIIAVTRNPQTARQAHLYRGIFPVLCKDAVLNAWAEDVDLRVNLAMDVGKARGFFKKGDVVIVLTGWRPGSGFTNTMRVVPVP
Compound,pEC50 (human recombinant PKM2),Emax (human recombinant PKM2) [%],pEC50 [1],Emax [1] [%],Max Activation (human recombinant PKM2) [%],Max Activation (cell) [1] [%]
"Cc1cccc(Cn2ncc3c4ccc(Oc5cccc(O)n5)cc4n(C)c3c2=O)n1 [Example 63, 7-((6-hydroxypyridin-2-yl)oxy)-5-methyl-3-((6-methylpyridin-2-yl)methyl)-3,5-dihydro-4H-pyridazino[4,5-b]indol-4-one]",7.51,219,7.11,302,–,–
"Cc1ccc2c3cnn(Cc4cccc(N)c4)c(=O)c3n(C)c2c1 [Example 3, 3-(3-Aminobenzyl)-5,7-dimethyl-3,5-dihydro-4H-pyridazino[4,5-b]indol-4-one]",6.37,193,7.55,310,–,–
"COc1cccc(Cn2ncc3c4ccc(Oc5cccc(F)n5)cc4n(C)c3c2=O)c1 [Example 90, 7-((6-fluoropyridin-2-yl)oxy)-3-(3-methoxybenzyl)-5-methyl-3,5-dihydro-4H-pyridazino[4,5-b]indol-4-one]",7.14,218,7.22,202,–,–
"Cn1c2cc([S+](C)[O-])ccc2c2cnn(Cc3ccccc3)c(=O)c21 (centres unmarked) [Example 5, 3-Benzyl-5-methyl-7-(methylsulfinyl)-3,5-dihydro-4H-pyridazino[4,5-b]indol-4-one]",6.72,226,7.89,295,–,–
"Cn1c2cc(O)c(F)cc2c2cnn(Cc3cccc(N)c3)c(=O)c21 [Example 54, 3-(3-aminobenzyl)-8-fluoro-7-hydroxy-5-methyl-3,5-dihydro-4H-pyridazino[4,5-b]indol-4-one]",7.28,–,7.12,–,299,273
"Cn1c2cc(Oc3cccc(F)n3)ccc2c2cnn(Cc3ccccc3F)c(=O)c21 [Example 74, 3-(2-fluorobenzyl)-7-((6-fluoropyridin-2-yl)oxy)-5-methyl-3,5-dihydro-4H-pyridazino[4,5-b]indol-4-one]",7.21,234,7.09,370,–,–
"COc1ccc2c(c1)c1cnn(Cc3cccc(N)c3)c(=O)c1n2C [Example 27, 3-(3-aminobenzyl)-8-methoxy-5-methyl-3,5-dihydro-4H-pyridazino[4,5-b]indol-4-one]",7.59,307,–,–,–,–
"3-((1H-pyrazol-3-yl)methyl)-7-41H-pyrazolo[4,3-c]pyridin-4-yl)oxy)-5-methyl-3,5-dihydro-4H-pyridazino[4,5-b]indol-4-one [Example 87]",7.30,–,7.02,–,270,317
"Cn1c2cc(O)c(F)cc2c2cnn(Cc3cccc(N)c3)c(=O)c21 [Example 21, 3-(3-aminobenzyl)-8-fluoro-7-hydroxy-5-methyl-3,5-dihydro-4H-pyridazino[4,5-b]indol-4-one]",7.60,299,7.12,273,–,–
"Cn1c2cc(Oc3cccc(F)n3)ccc2c2cnn(Cc3cc[nH]n3)c(=O)c21 [Example 86, 3-((1H-pyrazol-3-yl)methyl)-7-((6-fluoropyridin-2-yl)oxy)-5-methyl-3,5-dihydro-4H-pyridazino[4,5-b]indol-4-one]",7.20,195,6.76,352,–,–
"COc1ccc(Cn2ncc3c4ccc(C)cc4n(C)c3c2=O)cc1 [Example 2, 3-(4-Methoxybenzyl)-5,7-dimethyl-3,5-dihydro-4H-pyridazino[4,5-b]indol-4-one]",6.97,90,–,–,–,–
"Cn1c2cc(Oc3cccc(N)c3)ccc2c2cnn(Cc3cccc(N)c3)c(=O)c21 [Example 80, 3-(3-aminobenzyl)-7-(3-aminophenoxy)-5-methyl-3,5-dihydro-4H-pyridazino[4,5-b]indol-4-one]",7.35,286,6.63,325,–,–
"Cn1c2cc(Oc3ccc4[nH]ncc4n3)ccc2c2cnn(Cc3ccccc3F)c(=O)c21 [Example 70, 7-((1H-pyrazolo[4,3-b]pyridin-5-yl)oxy)-3-(2-fluorobenzyl)-5-methyl-3,5-dihydro-4H-pyridazino[4,5-b]indol-4-one]",7.09,191,6.79,210,–,–
"Cc1cccc(Cn2ncc3c4ccc(Oc5nccc6[nH]ncc56)cc4n(C)c3c2=O)n1 [Example 64, 7-((1H-pyrazolo[4,3-c]pyridin-4-yl)oxy)-5-methyl-3-((6-methylpyridin-2-yl)methyl)-3,5-dihydro-4H-pyridazino[4,5-b]indol-4-one]",7.16,165,7.14,272,–,–
"Cn1c2cc(Oc3nccc4[nH]ncc34)ccc2c2cnn(Cc3ccccc3F)c(=O)c21 [Example 71, 7-((1H-pyrazolo[4,3-c]pyridin-4-yl)oxy)-3-(2-fluorobenzyl)-5-methyl-3,5-dihydro-4H-pyridazino[4,5-b]indol-4-one]",7.55,165,7.16,278,–,–
"COc1cc2c(cc1F)c1cnn(Cc3cccc(C)n3)c(=O)c1n2C [Example 52, 8-fluoro-7-methoxy-5-methyl-3-((6-methylpyridin-2-yl)methyl)-3,5-dihydro-4H-pyridazino[4,5-b]indol-4-one]",7.01,225,7.18,305,–,–
"Cc1ccc2c3cnn(Cc4ccccc4)c(=O)c3n(C)c2c1 [Example 1, 3-Benzyl-5,7-dimethyl-3,5-dihydro-4H-pyridazino[4,5-b]indol-4-one]",6.93,212,7.82,431,–,–
"Cc1cccc(Cn2ncc3c4ccc(Oc5ncnc6[nH]ncc56)cc4n(C)c3c2=O)n1 [Example 65, 7-((1H-pyrazolo[3,4-d]pyrimidin-4-yl)oxy)-5-methyl-3-((6-methylpyridin-2-yl)methyl)-3,5-dihydro-4H-pyridazino[4,5-b]indol-4-one]",7.37,191,6.94,262,–,–
"COc1ccc2c3cnn(Cc4cn5ccccc5n4)c(=O)c3n(C)c2c1 [Example 11, 3-(Imidazo[1,2-a]pyridin-2-ylmethyl)-7-methoxy-5-methyl-3,5-dihydro-4H-pyridazino[4,5-b]indol-4-one]",6.96,170,–,–,–,–
"COc1cc2c(cc1F)c1cnn(Cc3cccc(N)c3)c(=O)c1n2C [Example 20, 3-(3-aminobenzyl)-8-fluoro-7-methoxy-5-methyl-3,5-dihydro-4H-pyridazino[4,5-b]indol-4-one]",7.82,199,7.17,229,–,–
"Cc1ccc2c3cnn(Cc4cccc(F)c4)c(=O)c3n(C)c2n1 [Example 18, 7-(3-fluorobenzyl)-2,9-dimethyl-7,9-dihydro-8H-pyrido[3′,2′:4,5]pyrrolo[2,3-d]pyridazin-8-one]",7.39,264,7.64,292,–,–
"COc1ccc2c3cnn(Cc4ccc5ncccc5c4)c(=O)c3n(C)c2c1 [Example 12, 7-Methoxy-5-methyl-3-(quinolin-6-ylmethyl)-3,5-dihydro-4H-pyridazino[4,5-b]indol-4-one]",6.88,123,–,–,–,–
